test system: CQC sensitive strain (NF54) of P. falciparum; experiment: In vitro antiplasmodial activity, Assay B (as described by Vennerstrom et al. 2004); type: cell-based; conditions: Plasmodium falciparum; NF54, Vennerstrom et al. method
Description: Compounds were screened against CQC sensitive strain (NF54) of P. falciparum in vitro as described by Vennerstrom et al. (2004). A full dose-response were performed starting at a concentration of 3000 nM, which is then serially diluted 2-fold in complete medium to give 10 concentrations; with the lowest concentration being approximately 6 nM. The same dilution techniques were used for all samples. References were tested at a starting concentration of 1000 ng/mL. The highest concentration of solvent to which the parasites were exposed has no measurable effect on the parasite viability (data not shown).

IC50 [nM]	Structure (SMILES)
15 to 50	CS(=O)(=O)c1ccc(-c2cc3ncnc(-c4cccc(C(=O)N5C[C@@H]6C[C@H]5CO6)c4F)c3o2)cc1 [Compound P5, ((1S,4S)-2-oxa-5-azabicyclo[2.2.1]heptan-5-yl)(2-fluoro-3-(6-(4-(methylsulfonyl)phenyl)furo [3,2-d]pyrimidin-4-yl)phenyl)methanone]
> 50	CC(C)(O)Cc1cc(-c2ncnc3cc(-c4ccc(S(C)(=O)=O)cc4)oc23)ccn1 [Compound P6, 2-methyl-1-(4-(6-(4-(methylsulfonyl)phenyl)furo [3,2-d]pyrimidin-4-yl)pyridin-2-yl)propan-2-ol]
15 to 50	CC(C)(O)c1cc(-c2ncnc3cc(-c4ccc(S(C)(=O)=O)cc4)oc23)ccn1 [Compound P7, 2-(4-(6-(4-(methylsulfonyl)phenyl)furo [3,2-d]pyrimidin-4-yl)pyridin-2-yl)propan-2-ol]
15 to 50	CN(C)C(=O)c1ccc(-c2cc3ncnc(-c4ccnc(C(C)(C)O)c4)c3o2)cc1 [Compound P8, 4-(4-(2-(2-hydroxypropan-2-yl)pyridin-4-yl)furo[3,2-d]pyrimidin-6-yl)-N,N-dimethylbenzamide]
15 to 50	CC(C)(O)c1cc(-c2ncnc3cc(-c4ccc(C(=O)N5CC(F)(F)C5)cc4)oc23)ccn1 [Compound P12, (3,3-difluoroazetidin-1-yl)(4-(4-(2-(2-hydroxypropan-2-yl)pyridin-4-yl)furo[3,2-d]pyrimidin-6-yl)phenyl)methanone]
15 to 50	CC(C)(O)c1cc(-c2ncnc3cc(-c4ccc(C(=O)N5CCOCC5)cc4)oc23)cc(F)n1 [Compound P14, (4-(4-(2-fluoro-6-(2-hydroxypropan-2-yl)pyridin-4-yl)furo[3,2-d]pyrimidin-6-yl)phenyl)(morpholino) methanone]
< 15	C[C@@H]1CN(C(=O)c2ccc(-c3cc4ncnc(-c5ccnc(C(C)(C)O)c5)c4o3)cc2)C[C@@H](C)O1 [Compound P15, ((2R,6R)-2,6-dimethylmorpholino)(4-(4-(2-(2-hydroxypropan-2-yl)pyridin-4-yl)furo[3,2-d]pyrimidin-6-yl)phenyl)methanone]
15 to 50	CC(C)(O)c1cc(-c2ncnc3cc(-c4ccc([S@](C)(=N)=O)cc4)oc23)ccn1 [Compound P27, (R)-(4-(4-(2-(2-hydroxypropan-2-yl)pyridin-4-yl)furo[3,2-d]pyrimidin-6-yl)phenyl)(imino)(methyl)-λ6-sulfanone]
< 15	CC(C)(O)c1cccc(-c2ncnc3cc(-c4ccc([S@](C)(=N)=O)cc4)oc23)c1F [Compound P30, (R)-(4-(4-(2-fluoro-3-(2-hydroxypropan-2-yl)phenyl)furo[3,2-d]pyrimidin-6-yl)phenyl)(imino)(methyl)-λ6-sulfanone]

The remaining lines, values behind:

Structure (SMILES)	IC50 [nM]
CC(=O)c1ccc(-c2cc3ncnc(-c4cccc(S(=O)(=O)C5CC5)c4)c3o2)cn1 [Compound P2, 1-(5-(4-(3-(cyclopropylsulfonyl)phenyl)furo[3,2-d]pyrimidin-6-yl)pyridin-2-yl)ethan-1-one]	> 50
CS(=O)(=O)c1ccc(-c2cc3ncnc(-c4cccc(C(=O)N5C[C@H]6C[C@@H]5CO6)c4)c3o2)cc1 [Compound P3, ((1R,4R)-2-oxa-5-azabicyclo[2.2.1]heptan-5-yl)(3-(6-(4-(methylsulfonyl)phenyl)furo [3,2-d]pyrimidin-4-yl)phenyl)methanone]	> 50
CS(=O)(=O)c1ccc(-c2cc3ncnc(-c4cccc(C(=O)N5C[C@H]6C[C@@H]5CO6)c4F)c3o2)cc1 [Compound P4, ((1R,4R)-2-oxa-5-azabicyclo[2.2.1]heptan-5-yl)(2-fluoro-3-(6-(4-(methylsulfonyl)phenyl)furo [3,2-d]pyrimidin-4-yl)phenyl)methanone]	15 to 50
CN(C)C(=O)c1ccc(-c2cc3ncnc(-c4cccc(C(C)(C)O)c4)c3o2)cc1 [Compound P9, 4-(4-(3-(2-hydroxypropan-2-yl)phenyl)furo[3,2-d]pyrimidin-6-yl)-N,N-dimethylbenzamide]	15 to 50
CC(C)(O)c1cc(-c2ncnc3cc(-c4ccc(C(=O)O)cc4)oc23)ccn1 [Compound P10, 4-(4-(2-(2-hydroxypropan-2-yl)pyridin-4-yl)furo[3,2-d]pyrimidin-6-yl)benzoic acid]	15 to 50
CC(C)(O)c1cc(-c2ncnc3cc(-c4ccc(C(=O)N5CCOCC5)cc4)oc23)ccn1 [Compound P11, (4-(4-(2-(2-hydroxypropan-2-yl)pyridin-4-yl)furo[3,2-d]pyrimidin-6-yl)phenyl)(morpholino) methanone]	< 15
C[C@H]1CN(C(=O)c2ccc(-c3cc4ncnc(-c5ccnc(C(C)(C)O)c5)c4o3)cc2)C[C@H](C)O1 [Compound P16, ((2S,6S)-2,6-dimethylmorpholino)(4-(4-(2-(2-hydroxypropan-2-yl)pyridin-4-yl)furo[3,2-d]pyrimidin-6-yl)phenyl)methanone]	< 15
CN1CCN(C(=O)c2ccc(-c3cc4ncnc(-c5ccnc(C(C)(C)O)c5)c4o3)cc2)CC1 [Compound P22, (4-(4-(2-(2-hydroxypropan-2-yl)pyridin-4-yl)furo[3,2-d]pyrimidin-6-yl)phenyl)(4-methylpiperazin-1-yl)methanone]	< 15
CC(C)(O)c1cc(-c2ncnc3cc(-c4ccc(S(C)(=N)=O)cc4)oc23)ccn1 (stereo not drawn) [Compound P25, (4-(4-(2-(2-hydroxypropan-2-yl)pyridin-4-yl)furo[3,2-d]pyrimidin-6-yl)phenyl)(imino)(methyl)-λ6-sulfanone]	15 to 50
CC(C)(O)c1cc(-c2ncnc3cc(-c4ccc([S@@](C)(=N)=O)cc4)oc23)ccn1 [Compound P26, (S)-(4-(4-(2-(2-hydroxypropan-2-yl)pyridin-4-yl)furo[3,2-d]pyrimidin-6-yl)phenyl)(imino)(methyl)-λ6-sulfanone]	15 to 50
CC(C)(O)c1cccc(-c2ncnc3cc(-c4ccc([S@@](C)(=N)=O)cc4)oc23)c1F [Compound P29, (S)-(4-(4-(2-fluoro-3-(2-hydroxypropan-2-yl)phenyl)furo[3,2-d]pyrimidin-6-yl)phenyl)(imino)(methyl)-λ6-sulfanone]	< 15

test system: chloroquine sensitive (CQS) strain (NF54) of P. falciparum; experiment: In vitro antiplasmodial activity, Assay A (parasite lactate dehydrogenase assay); type: cell-based; conditions: not given
Description: Test samples were screened for in vitro antiplasmodial activity against a chloroquine sensitive (CQS) strain (NF54) of the malaria parasite P. falciparum. Continuous in vitro cultures of asexual erythrocyte stages of P. falciparum were maintained using a modified version of the method of Trager and Jensen (1976).1 Quantitative assessment of antiplasmodial activity in vitro was determined via the parasite lactate dehydrogenase assay using a modified method described by Makler (1993). The test samples were tested in triplicate on two separate occasions. Further dilutions were prepared in complete medium on the day of the experiment. Samples were tested as a suspension if not completely dissolved. Chloroquine and artesunate were used as the reference drugs. A full dose-response were performed starting at a concentration of 3000 nM, which is then serially diluted 2-fold in complete medium to give 10 concentrations; with the lowest concentration being approximately 6 nM. The same dilution techniques were used for all samples. References were tested at a starting concentration of 1000 ng/mL. The highest concentration of solvent to which the parasites were exposed has no measurable effect on the parasite viability (data not shown).

IC50 [nM]	Structure (SMILES)
< 15	CC(C)(O)c1cccc(-c2ncnc3cc(-c4ccc(S(C)(=N)=O)cc4)oc23)c1F (stereo not drawn) [Compound P28, (4-(4-(2-fluoro-3-(2-hydroxypropan-2-yl)phenyl)furo[3,2-d]pyrimidin-6-yl)phenyl)(imino)(methyl)-λ6-sulfanone]

same assay, conditions: Plasmodium falciparum

IC50 [nM]	Structure (SMILES)
> 50	Cn1cc(-c2cc3ncnc(-c4cccc(S(=O)(=O)C5CC5)c4)c3o2)ccc1=O [Compound D22, 5-(4-(3-(cyclopropylsulfonyl)phenyl)furo[3,2-d]pyrimidin-6-yl)-1-methylpyridin-2(1H)-one]
< 15	CC(C)(C)OC(=O)c1ccc(-c2cc3ncnc(-c4ccnc(C(C)(C)O)c4)c3o2)cc1 [Compound D162, tert-butyl 4-(4-(2-(2-hydroxypropan-2-yl)pyridin-4-yl)furo[3,2-d]pyrimidin-6-yl)benzoate]
< 15	COC(=O)c1cccc(-c2cc3ncnc(-c4ccnc(C(C)(C)O)c4)c3o2)c1 [Compound D163, methyl 3-(4-(2-(2-hydroxypropan-2-yl)pyridin-4-yl)furo[3,2-d]pyrimidin-6-yl)benzoate]
< 15	CC(C)(O)c1cc(-c2ncnc3cc(-c4cccc(C(=O)O)c4)oc23)ccn1 [Compound D164, 3-(4-(2-(2-hydroxypropan-2-yl)pyridin-4-yl)furo[3,2-d]pyrimidin-6-yl)benzoic acid]
< 15	CC(C)(O)c1cc(F)cc(-c2ncnc3cc(-c4ccc(C(=O)N5CCOCC5)cc4)oc23)c1 [Compound D165, (4-(4-(3-fluoro-5-(2-hydroxypropan-2-yl)phenyl)furo[3,2-d]pyrimidin-6-yl)phenyl)(morpholino) methanone]
> 50	CC1COCC(C)N1C(=O)c1ccc(-c2cc3ncnc(-c4ccnc(C(C)(C)O)c4)c3o2)cc1 (stereo not drawn) [Compound D171, (3,5-dimethylmorpholino)(4-(4-(2-(2-hydroxypropan-2-yl)pyridin-4-yl)furo[3,2-d]pyrimidin-6-yl)phenyl)methanone]
< 15	CC(C)(O)c1cc(F)cc(-c2ncnc3cc(-c4ccc(C(=O)N5C[C@H]6C[C@@H]5CO6)cc4)oc23)c1 [Compound D173, ((1R,4R)-2-oxa-5-azabicyclo[2.2.1]heptan-5-yl)(4-(4-(3-fluoro-5-(2-hydroxypropan-2-yl)phenyl)furo[3,2-d]pyrimidin-6-yl)phenyl)methanone]
< 15	CC(C)(O)c1cc(F)cc(-c2ncnc3cc(-c4ccc(C(=O)N5C[C@@H]6C[C@H]5CO6)cc4)oc23)c1 [Compound D175, ((1S,4S)-2-oxa-5-azabicyclo[2.2.1]heptan-5-yl)(4-(4-(3-fluoro-5-(2-hydroxypropan-2-yl)phenyl)furo[3,2-d]pyrimidin-6-yl)phenyl)methanone]
> 50	CC(C)(O)c1cccc(-c2ncnc3cc(-c4ccc(C(=O)N5CCOCC5)cc4)oc23)c1 [Compound P13, (4-(4-(3-(2-hydroxypropan-2-yl)phenyl)furo[3,2-d]pyrimidin-6-yl)phenyl)(morpholino) methanone]
